Measured values as given in US20230043863A1, “HETEROAROMATIC DERIVATIVES FOR USE AS REGULATOR, PREPARATION METHOD THEREFOR AND USE THEREOF” (JIANGSU HANSOH PHARMACEUTICAL GROUP CO., LTD., priority 2018, published 2023).

Columns and labels:
[1] = system: JAK-STAT signal pathway of U266 cells; experiment: Inhibition of cellular JAK-STAT signal pathway (STAT3 phosphorylation) in U266 cells; type: cell-based, human; details: Homo sapiens, U-266, INF-a 1000 U/mL stimulation
Procedure: The objective of the test is to test the inhibitory activity of the compound on the cellular JAK-STAT signaling pathway.
U266 cell line was used in this experiment, by activating the JAK-STAT signaling pathway through INF-a stimulation, the inhibitory activity of the compound on its downstream STAT3 phosphorylation was detected, and the half inhibitory concentration IC50 of the compound on the JAK-STAT signaling pathway activity was obtained.
3-12 μL of U266 cell line was spread into the 384-well detection plate, and the number of cells in each well was 100-300 K, followed by addition of 2 μL of the compound solution serially diluted. The plate was incubated for 2 hours with shaking at 350 rpm at room temperature. After 2 hours, 2 μL of INF-a with a final concentration of 1000 U/mL was added. The plate was shaken at room temperature for 15 minutes. 2-5 μL (5×) LANCE Ultra Lysis Buffer 2 solution was added and the plate was shaken at room temperature for 2 hours. After 2 hours, 5 μL of LANCE Ultra Eu-labeled Anti-STAT3 Antibody (PerkinElmer) with a final concentration of 0.5 nM and LANCE Ultra ULight-labeled Anti-STAT3 Antibody (PerkinElmer) with a final concentration of 5 nM were added, and the plate was incubated overnight at room temperature. The fluorescence signal value at 665 nm of each well was measured with the microplate reader, and the inhibition rate was calculated from the fluorescence signal value. According to the inhibition rate of different concentrations, the IC50 of the compound was obtained by curve fitting.
(§1) The percentage inhibition data of the wells treated with the compound was calculated with the positive control wells (DMSO control wells) and negative control wells (no kinase added) on the plate {% inhibition rate=100-[(test compound value-negative control value)]/(Positive control value-negative control value)×100}. IC50 value was calculated by using GraphPad prism to fit the data of different concentrations and corresponding percentage inhibition rates to a 4-parameter non-linear logic formula.

JAK1 = JAK1 (Homo sapiens, UniProt P23458); experiment: JAK kinase activity inhibition, TR-FRET (JAK1); type: biochemical; details: TR-FRET kinase assay
Procedure: (§2) Experimental objective: The objective of this test is to test the inhibitory effect of the compound on JAK kinase activity.
(§3) Experimental method: the fluorescence resonance energy transfer (TR-FRET) method was used to test the inhibitory effect of the compound on JAK kinase activity, and the half inhibitory concentration IC50 of the compound on JAK kinase activity was obtained.
(§4) Kinase reaction was carried out in a white 384-well plate (PerkinElmer). 1-5 μL of different concentrations of the compound diluted with DMSO and ddH2O was added into each well, and 1-5 μL of the corresponding solvent was added to the positive control wells, followed by addition of 0.1-20 nM JAK kinase solution diluted with 1-5 μL of kinase buffer (HEPES 50-250 mM, MgCl2 5-20 mM, etc.) was added to each well. 1-5 μL of kinase buffer was added to the negative control well. 1-5 μL of substrate mixture containing peptide substrate and ATP was added. The plate was incubated at room temperature for 0.5-5 hours. […], EDTA and detection solution containing labeled antibody was added, and then the plate was incubated at room temperature for another 1-24 hours. The fluorescence signal value at about 620 nm and 665 nm of each well was measured by BioTek Synergy H1 plate reader, and the inhibition rate was calculated by the fluorescence signal value. According to the inhibition rate of different concentrations, the IC50 of the compound was obtained by curve fitting.
as §1

TYK2 = TYK2 (Homo sapiens, UniProt P29597); experiment: JAK kinase activity inhibition, TR-FRET (TYK2); type: biochemical; details: TR-FRET kinase assay
Procedure: as §2, §3, §4, §1

Sequence of JAK1 (P23458 whole entry): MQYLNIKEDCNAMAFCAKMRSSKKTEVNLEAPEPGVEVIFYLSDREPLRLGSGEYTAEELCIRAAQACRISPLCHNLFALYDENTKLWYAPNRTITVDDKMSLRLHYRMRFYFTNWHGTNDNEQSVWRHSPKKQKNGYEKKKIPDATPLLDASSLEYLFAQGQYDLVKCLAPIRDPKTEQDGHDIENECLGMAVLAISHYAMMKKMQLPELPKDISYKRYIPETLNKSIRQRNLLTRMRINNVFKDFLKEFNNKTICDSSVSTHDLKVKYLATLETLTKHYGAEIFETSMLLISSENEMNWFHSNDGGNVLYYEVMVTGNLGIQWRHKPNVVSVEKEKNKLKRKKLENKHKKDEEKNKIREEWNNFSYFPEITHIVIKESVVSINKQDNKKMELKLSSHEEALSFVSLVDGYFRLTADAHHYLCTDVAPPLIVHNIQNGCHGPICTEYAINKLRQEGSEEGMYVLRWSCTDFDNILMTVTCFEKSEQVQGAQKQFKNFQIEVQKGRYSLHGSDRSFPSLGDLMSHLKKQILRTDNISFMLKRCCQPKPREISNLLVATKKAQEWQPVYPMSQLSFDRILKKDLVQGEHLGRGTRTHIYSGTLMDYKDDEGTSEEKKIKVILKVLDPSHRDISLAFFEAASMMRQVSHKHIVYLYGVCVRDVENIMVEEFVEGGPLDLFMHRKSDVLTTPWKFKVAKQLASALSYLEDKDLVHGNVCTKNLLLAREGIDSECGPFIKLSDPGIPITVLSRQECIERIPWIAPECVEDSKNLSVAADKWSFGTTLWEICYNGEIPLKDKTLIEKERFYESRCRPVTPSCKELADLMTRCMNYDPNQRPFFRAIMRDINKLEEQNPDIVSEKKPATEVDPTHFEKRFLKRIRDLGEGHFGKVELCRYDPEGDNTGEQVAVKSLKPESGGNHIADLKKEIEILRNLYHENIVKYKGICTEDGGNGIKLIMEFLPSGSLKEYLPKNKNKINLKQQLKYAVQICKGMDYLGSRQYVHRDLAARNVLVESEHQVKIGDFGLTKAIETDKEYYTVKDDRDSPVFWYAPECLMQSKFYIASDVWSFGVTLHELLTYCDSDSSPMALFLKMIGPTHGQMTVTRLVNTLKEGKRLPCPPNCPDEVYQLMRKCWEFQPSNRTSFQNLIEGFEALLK
Sequence of TYK2 (P29597 whole entry): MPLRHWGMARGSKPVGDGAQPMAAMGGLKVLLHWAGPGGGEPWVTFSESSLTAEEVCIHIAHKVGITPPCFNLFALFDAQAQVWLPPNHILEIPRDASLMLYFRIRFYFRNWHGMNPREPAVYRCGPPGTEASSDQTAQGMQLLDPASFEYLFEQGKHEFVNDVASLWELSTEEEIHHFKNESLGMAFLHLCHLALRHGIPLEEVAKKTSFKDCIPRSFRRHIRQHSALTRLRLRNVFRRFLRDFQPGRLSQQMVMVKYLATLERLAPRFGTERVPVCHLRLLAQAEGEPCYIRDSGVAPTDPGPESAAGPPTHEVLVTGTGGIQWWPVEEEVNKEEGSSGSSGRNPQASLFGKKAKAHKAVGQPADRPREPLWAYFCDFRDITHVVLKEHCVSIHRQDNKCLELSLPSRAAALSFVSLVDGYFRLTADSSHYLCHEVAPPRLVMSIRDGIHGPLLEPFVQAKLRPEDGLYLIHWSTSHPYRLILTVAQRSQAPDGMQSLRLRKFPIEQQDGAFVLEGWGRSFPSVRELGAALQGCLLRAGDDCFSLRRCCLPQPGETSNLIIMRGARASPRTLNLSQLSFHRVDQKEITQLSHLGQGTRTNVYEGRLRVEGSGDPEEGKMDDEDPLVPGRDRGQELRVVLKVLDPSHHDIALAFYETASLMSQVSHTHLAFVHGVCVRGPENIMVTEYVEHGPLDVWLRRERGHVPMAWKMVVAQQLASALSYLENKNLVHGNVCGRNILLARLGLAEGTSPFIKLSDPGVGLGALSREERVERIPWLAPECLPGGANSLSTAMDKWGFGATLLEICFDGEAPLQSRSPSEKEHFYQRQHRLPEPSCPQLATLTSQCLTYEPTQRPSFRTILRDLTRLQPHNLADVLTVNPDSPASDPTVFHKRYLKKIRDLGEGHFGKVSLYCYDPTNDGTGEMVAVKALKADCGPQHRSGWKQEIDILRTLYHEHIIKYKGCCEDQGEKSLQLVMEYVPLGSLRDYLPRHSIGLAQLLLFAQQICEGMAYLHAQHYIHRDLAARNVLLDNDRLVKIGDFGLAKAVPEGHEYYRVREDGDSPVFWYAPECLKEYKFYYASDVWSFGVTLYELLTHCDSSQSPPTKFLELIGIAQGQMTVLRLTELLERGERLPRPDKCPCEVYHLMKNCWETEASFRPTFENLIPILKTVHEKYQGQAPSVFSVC

SMILES	IC50 [1] [nM]	IC50 (JAK1) [nM]	IC50 (TYK2) [nM]
Cc1cc(Nc2cc3nccnc3c(N[C@@H]3C[C@H]4CC[C@@H](C3)N4CCC#N)n2)n[nH]1 [Embodiment 88, 3-((3-exo)-3-((7-((5-methyl-1H-pyrazol-3-yl)amino)pyrido[3,4-b]pyrazin-5-yl)amino)-8-azabicyclo[3.2.1]oct-8-yl)propionitrile]	3.1	1.75	3.53
Cc1cc(Nc2nc(N[C@@H]3C[C@H]4CC[C@@H](C3)N4CCC#N)nc3scnc23)n[nH]1 [Embodiment 66, 3-((3-exo)-3-((7-((5-methyl-1H-pyrazol-3-yl)amino)thiazolo[5,4-d]pyrimidin-5-yl)amino)-8-azabicyclo[3.2.1]oct-8-yl)propionitrile]	4.06	3.02	1.49
Cc1cc(Nc2nc(N[C@@H]3C[C@H]4CCC[C@@H](C3)N4Cc3ccccn3)nc3sccc23)n[nH]1 [Embodiment 271]	1.49	0.05	4.91
Cc1cc(Nc2nc(N[C@@H]3C[C@H]4CCC[C@@H](C3)N4C(=O)c3cn(C)cn3)nc3sccc23)n[nH]1 [Embodiment 264, (1-methyl-1H-imidazol-4-yl) ((3-exo)-3-((4-((5-methyl-1H-pyrazol-3-yl)amino)thieno[2,3-d]pyrimidin-2-yl)amino)-9-azabicyclo[3.3.1]non-9-yl)methanone]	33.5	0.19	0.48
Cc1cc(Nc2nc(N[C@@H]3C[C@H]4CCC[C@@H](C3)N4C(=O)c3cccnc3)nc3sccc23)n[nH]1 [Embodiment 261, ((3-exo)-3-((4-((5-methyl-1H-pyrazol-3-yl)amino)thieno[2,3-d]pyrimidin-2-yl)amino)-9-azabicyclo[3.3.1]non-9-yl)(pyridin-3-yl)methanone]	10.6	0.04	5.58
Cc1cc(Nc2nc(N[C@@H]3C[C@H]4CC[C@@H](C3)N4C(=O)CN(C)C)nc3ccsc23)n[nH]1 [Embodiment 287, 2-(dimethylamine)-1-((3-exo)-3-((4-((5-methyl-1H-pyrazol-3-yl)amino)thieno[3,2-d]pyrimidin-2-yl)amino)-8-azabicyclo[3.2.1]oct-8-yl)ethane-1-one]	10.5	0.58	4.21
Cc1cc(Nc2nc(N[C@@H]3C[C@@H]4CN(CCC#N)C[C@@H]4C3)nc3sccc23)n[nH]1 [Embodiment 298, 3-(cis-5-((4-((5-methyl-1H-pyrazol-3-yl)amino)thieno[2,3-d]pyrimidin-2-yl)amino)hexahydrocyclopentadieno[c]pyrrole-2(1H)-yl)propionitrile]	1.86	0.67	22.8
Cc1cc(Nc2nc(N[C@@H]3C[C@H]4CC[C@@H](C3)N4CC(=O)N(C)C)nc3ccsc23)n[nH]1 [Embodiment 293, N,N-dimethyl-2-((3-exo)-3-((4-((5-methyl-1H-pyrazol-3-yl)amino)thieno[3,2-d]pyrimidin-2-yl)amino)-8-azabicyclo[3.2.1]oct-8-yl)acetamide]	16.5	3.97	10.8
Cc1cc(Nc2nc(N[C@@H]3C[C@H]4CC[C@@H](C3)N4S(=O)(=O)N3CC(C#N)C3)nc3ccsc23)n[nH]1 [Embodiment 285]	42	0.17	0.51
Cc1cc(Nc2nc(N[C@@H]3C[C@H]4CC[C@@H](C3)N4S(=O)(=O)N3CC(C#N)C3)nc3cccnc23)n[nH]1 [Embodiment 220, 1-(((3-exo)-3-((4-((5-methyl-1H-pyrazol-3-yl)amino)pyrido[3,2-d]pyrimidin-2-yl)amino)-8-azabicyclo[3.2.1]oct-8-yl)sulfonyl)azetindin-3-formonitrile]	10.2	0.67	4.27
Cc1cc(Nc2nc(N[C@@H]3C[C@H]4CCC[C@@H](C3)N4Cc3nccn3C)nc3sccc23)n[nH]1 [Embodiment 272, N^2-((3-exo)-9-((1-methyl-1H-imidazol-2-yl)methyl)-9-azabicyclo[3.3.1]non-3-yl)-N^4-(5-methyl-1H-pyrazol-3-yl)thieno[2,3-d]pyrimidin-2,4-diamine]	15.3	0.6	24.7
Cc1cc(Nc2nc(N(C)[C@@H]3C[C@H]4CC[C@@H](C3)N4S(=O)(=O)N3CC(C#N)C3)nc3sc(C)cc23)n[nH]1 [Embodiment 240, 1-(((3-exo)-3-(methyl(6-methyl-4-((5-methyl-1H-pyrazol-3-yl)amino)thieno[2,3-d]pyrimidin-2-yl)amino)-8-azabicyclo[3.2.1]oct-8-yl)sulfonyl)azetindin-3-formonitrile]	14.4	0.49	0.68
N#CCCN1[C@@H]2CCC[C@H]1C[C@H](Nc1nc(Nc3ncc(CO)s3)cc3ncccc13)C2 [Embodiment 163, 3-((3-exo)-3-((7-((5-(hydroxymethyl)thiazol-2-yl)amino)-1,6-diazanaphthalen-5-yl)amino)-9-azabicyclo[3.3.1]non-9-yl)propionitrile]	52.6	0.45	24.4
Cc1cc(Nc2nc(N[C@@H]3C[C@H]4CC[C@@H](C3)N4S(=O)(=O)N3CC(C#N)C3)nc3cc(F)ccc23)n[nH]1 [Embodiment 215, 1-(((3-exo)-3-((7-fluoro-4-((5-methyl-1H-pyrazol-3-yl)amino)quinazolin-2-yl)amino)-8-azabicyclo[3.2.1]oct-8-yl)sulfonyl)azetindin-3-formonitrile]	24.1	0.12	0.27
O=C(C(F)F)N1[C@@H]2CC[C@H]1C[C@H](Nc1nc(Nc3ncc(CO)s3)cc3ncccc13)C2 [Embodiment 166, 2,2-difluoro-1-((3-exo)-3-((7-((5-(hydroxymethyl)thiazol-2-yl)amino)-1,6-diazanaphthalen-5-yl)amino)-8-azabicyclo[3.2.1]oct-8-yl)ethane-1-one]	26.7	0.19	9.31
Cc1cc(Nc2nc(NC3CCN(CCC#N)CC3)nc3ccccc23)n[nH]1 [Embodiment 310, 3-(4-((4-((5-methyl-1H-pyrazol-3-yl)amino)quinazolin-2-yl)amino)piperidin-1-yl)propionitrile]	5.41	8.67	0.26
CCc1cc(Nc2cc3ncccc3c(N[C@@H]3C[C@H]4CC[C@@H](C3)N4CCC#N)n2)n[nH]1 [Embodiment 11, 3-((3-exo)-3-((7-((5-ethyl-1H-pyrazol-3-yl)amino)-1,6-diazanaphthalen-5-yl)amino)-8-azabicyclo[3.2.1]oct-8-yl)propionitrile]	4.77	0.3	9.13
Cc1cc(Nc2nc(N[C@@H]3C[C@H]4CC[C@@H](C3)N4CCC#N)nc3cccnc23)n[nH]1 [Embodiment 174, 3-((3-exo)-3-((4-((5-methyl-1H-pyrazol-3-yl)amino)pyrido[3,2-d]pyrimidin-2-yl)amino)-8-azabicyclo[3.2.1]oct-8-yl)propionitrile]	0.42	2.73	1.88
Cc1cc(Nc2nc(N[C@@H]3C[C@H]4CC[C@@H](C3)N4C(=O)[C@H]3CCCN3)nc3sccc23)n[nH]1 [Embodiment 248, ((3-exo)-3-((4-((5-methyl-1H-pyrazol-3-yl)amino)thieno[2,3-d]pyrimidin-2-yl)amino)-9-azabicyclo[3.3.1]non-9-yl) ((R)-pyrrolidin-2-yl)methanone]	43.5	0.44	0.36
